The results in this text go back to US9096624B2 (OSI Pharmaceuticals, LLC, priority 2009, dated 2015).

pIC50: −log10 of the molar value. Some results are limits rather than exact numbers.

Experiment [1] addresses T1, FAK (Homo sapiens, UniProt Q05397). Put plainly: biochemical.
Experiment [2] addresses T1, FAK. In words: Cell-based capture ELISA for inhibition of FAK autophosphorylation [pY397] in MiaPaCa2 cells. The note with it: MIA-PaCa2 cells, + 50% mouse plasma (Table 3); read-out: Mean FAK Cell Mechanistic IC50 + 50% mP MIA-PaCa2. Here is the method: Cell-Based Assays for Inhibition of FAK Autophosphorylation: MiaPaCa2 and U87MG
ELISA kit from Invitrogen (KHO0441).
Reagents Provided in Biosource FAK [pY397]
The cells were then suspended in cell assay medium.

T1 sequence (Q05397 whole entry): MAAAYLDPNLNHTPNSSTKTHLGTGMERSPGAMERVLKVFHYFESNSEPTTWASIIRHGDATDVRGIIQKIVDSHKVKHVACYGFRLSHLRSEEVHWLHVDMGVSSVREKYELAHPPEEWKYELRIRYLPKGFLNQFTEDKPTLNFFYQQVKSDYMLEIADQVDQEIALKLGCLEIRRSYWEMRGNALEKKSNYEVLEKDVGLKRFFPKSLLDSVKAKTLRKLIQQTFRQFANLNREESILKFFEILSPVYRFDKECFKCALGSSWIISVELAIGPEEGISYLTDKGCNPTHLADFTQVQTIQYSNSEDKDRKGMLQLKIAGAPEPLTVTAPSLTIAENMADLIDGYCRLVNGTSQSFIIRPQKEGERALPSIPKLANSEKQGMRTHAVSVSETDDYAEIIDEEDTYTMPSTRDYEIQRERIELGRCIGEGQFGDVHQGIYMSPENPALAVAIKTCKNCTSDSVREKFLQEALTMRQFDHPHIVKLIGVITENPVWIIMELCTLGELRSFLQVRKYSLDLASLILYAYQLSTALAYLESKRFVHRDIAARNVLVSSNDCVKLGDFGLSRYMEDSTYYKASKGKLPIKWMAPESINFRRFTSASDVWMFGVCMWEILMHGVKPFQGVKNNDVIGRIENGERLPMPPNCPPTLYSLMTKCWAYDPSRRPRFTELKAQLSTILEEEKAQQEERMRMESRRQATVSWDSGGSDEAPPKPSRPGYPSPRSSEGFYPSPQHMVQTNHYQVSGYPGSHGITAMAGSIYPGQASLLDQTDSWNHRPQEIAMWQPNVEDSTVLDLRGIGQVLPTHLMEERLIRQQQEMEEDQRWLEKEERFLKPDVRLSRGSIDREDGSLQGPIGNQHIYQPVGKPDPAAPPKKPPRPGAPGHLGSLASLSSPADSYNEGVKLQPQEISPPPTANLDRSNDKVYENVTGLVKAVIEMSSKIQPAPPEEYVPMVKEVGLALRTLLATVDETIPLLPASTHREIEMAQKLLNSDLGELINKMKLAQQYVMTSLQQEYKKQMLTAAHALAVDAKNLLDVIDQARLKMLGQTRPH

Turning to `CCOP(C)(=O)Cc1ccc(Nc2ncc(C(F)(F)F)c(Nc3ccc([C@H]4CC[C@H](O)CC4)c4c3C(=O)N(C)C4)n2)c(OC)c1` (stereo partly drawn) [Example 191, Ethyl (4-{[4-{[7-(trans-4-hydroxycyclohexyl)-2-methyl-3-oxo-2,3-dihydro-1H-isoindol-4-yl]amino}-5-(trifluoromethyl)pyrimidin-2-yl]amino}-3-methoxybenzyl) methylphosphinate], the negative-log IC50 (pIC50) at FAK [1] and at FAK [2] was > 6.00 in each case.

On to `CCOP(=O)(Cc1ccc(Nc2ncc(C(F)(F)F)c(Nc3ccc([C@H]4CC[C@@H](O)CC4)cc3C(=O)N(C)C)n2)c(OC)c1)OCC` [Example 194, Diethyl (4-{[4-{[2-(dimethylcarbamoyl)-4-(cis-4-hydroxycyclohexyl)phenyl]amino}-5-(trifluoromethyl)pyrimidin-2-yl]amino}-3-methoxybenzyl)phosphonate], for which the negative logarithm of the IC50 (pIC50) was > 6.00 on FAK [1] and 5.00 to 6.00 at FAK [2].

Consider `CCOP(=O)(Cc1ccc(Nc2ncc(C(F)(F)F)c(Nc3ccc([C@H]4CC[C@](C)(O)CC4)c4c3C(=O)N(C)C4)n2)c(OC)c1)OCC` [Example 196, Diethyl (4-{[4-{[7-(trans-4-hydroxy-4-methylcyclohexyl)-2-methyl-3-oxo-2,3-dihydro-1H-isoindol-4-yl]amino}-5-(trifluoromethyl)pyrimidin-2-yl]amino}-3-methoxybenzyl)phosphonate], for which the pIC50 at FAK [1] and on FAK [2] was > 6.00 each time.

With `CCOP(=O)(Cc1ccc(Nc2ncc(C(F)(F)F)c(Nc3ccc([C@H]4CC[C@@](C)(O)CC4)c4c3C(=O)N(C)C4)n2)c(OC)c1)OCC` [Example 197, Diethyl (4-{[4-{[7-(cis-4-hydroxy-4-methylcyclohexyl)-2-methyl-3-oxo-2,3-dihydro-1H-isoindol-4-yl]amino}-5-(trifluoromethyl)pyrimidin-2-yl]amino}-3-methoxybenzyl)phosphonate], the negative-log IC50 (pIC50) against FAK [1] and on FAK [2] was > 6.00 throughout.

In the case of `CCCP(=O)(CCC)c1ccc(Nc2ncc(C(F)(F)F)c(Nc3ccc([C@H]4CC[C@H](O)CC4)c4c3C(=O)N(C)C4)n2)cc1` [Example 198, 7-{[2-{[4-(Dipropylphosphoryl)phenyl]amino}-5-(trifluoromethyl)pyrimidin-4-yl]amino}-4-(trans-4-hydroxycyclohexyl)-2-methyl-2,3-dihydro-1H-isoindol-1-one], the negative logarithm of the IC50 (pIC50) at FAK [1] and at FAK [2] was > 6.00 in each case.

As for `CCOP(=O)(Cc1ccc(Nc2ncc(C(F)(F)F)c(Nc3ccc(N4CCN(C(C)=O)CC4)c4c3C(=O)N(C)C4)n2)cc1)OCC` [Example 199, Diethyl (4-{[4-{[7-(4-acetylpiperazin-1-yl)-2-methyl-3-oxo-2,3-dihydro-1H-isoindol-4-yl]amino}-5-(trifluoromethyl)pyrimidin-2-yl]amino}benzyl)phosphonate], the pIC50 on FAK [1] and at FAK [2] was > 6.00 each time.

Turning to `CCOP(=O)(Cc1ccc(Nc2ncc(C(F)(F)F)c(Nc3ccc(N4CCN(C)CC4)c4c3C(=O)N(C)C4)n2)cc1)OCC` [Example 201, Diethyl (4-{[4-{[2-methyl-7-(4-methylpiperazin-1-yl)-3-oxo-2,3-dihydro-1H-isoindol-4-yl]amino}-5-(trifluoromethyl)pyrimidin-2-yl]amino}benzyl)phosphonate], the pIC50 on FAK [1] and on FAK [2] was > 6.00 in each case.

`CCOP(=O)(Cc1ccc(Nc2ncc(C(F)(F)F)c(Nc3cccc4[nH]cc(C)c(=O)c34)n2)cc1)OCC` [Example 203, Diethyl [4-({4-[(3-methyl-4-oxo-1,4-dihydroquinolin-5-yl)amino]-5-(trifluoromethyl)pyrimidin-2-yl}amino)benzyl]phosphonate]: the pIC50 at FAK [1] and at FAK [2] was > 6.00 in each case.

Consider `CCOc1ccc(Nc2nc(Nc3ccc(CP(=O)(OCC)OCC)cc3)ncc2C(F)(F)F)c2c1CN(C)C2=O` [Example 206, Diethyl [4-({4-[(7-ethoxy-2-methyl-3-oxo-2,3-dihydro-1H-isoindol-4-yl)amino]-5-(trifluoromethyl)pyrimidin-2-yl}amino)benzyl]phosphonate], for which the pIC50 against FAK [1] and on FAK [2] was > 6.00 each time.

Consider `CCOP(=O)(Cc1ccc(Nc2ncc(C(F)(F)F)c(Nc3ccc(OC(C)C)c4c3C(=O)N(C)C4)n2)cc1)OCC` [Example 207, Diethyl (4-{[4-{[2-methyl-3-oxo-7-(propan-2-yloxy)-2,3-dihydro-1H-isoindol-4-yl]amino}-5-(trifluoromethyl)pyrimidin-2-yl]amino}benzyl)phosphonate], for which the pIC50 against FAK [1] and on FAK [2] was > 6.00 throughout.

For the molecule `CCOP(=O)(Cc1ccc(Nc2ncc(C(F)(F)F)c(Nc3ccc(N4CCOCC4)c4c3C(=O)N(C)C4)n2)cc1)OCC` [Example 208, Diethyl (4-{[4-{[2-methyl-7-(morpholin-4-yl)-3-oxo-2,3-dihydro-1H-isoindol-4-yl]amino}-5-(trifluoromethyl)pyrimidin-2-yl]amino}benzyl)phosphonate], the negative-log IC50 (pIC50) against FAK [1] and at FAK [2] was > 6.00 throughout.

On to `CCOP(=O)(Cc1ccc(Nc2ncc(C(F)(F)F)c(Nc3ccc(OC)c4c3C(=O)N(C)C4)n2)c(OC)c1)OCC` [Example 209, Diethyl [3-methoxy-4-({4-[(7-methoxy-2-methyl-3-oxo-2,3-dihydro-1H-isoindol-4-yl)amino]-5-(trifluoromethyl)pyrimidin-2-yl}amino)benzyl]phosphonate], for which the negative logarithm of the IC50 (pIC50) against FAK [1] and on FAK [2] was > 6.00 in each case.

In the case of `COCCOP(=O)(Cc1ccc(Nc2ncc(C(F)(F)F)c(Nc3ccc([C@H]4CC[C@H](O)CC4)c4c3C(=O)N(C)C4)n2)c(OC)c1)OCCOC` [Example 217, Bis(2-methoxyethyl) (4-{[4-{[7-(trans-4-hydroxycyclohexyl)-2-methyl-3-oxo-2,3-dihydro-1H-isoindol-4-yl]amino}-5-(trifluoromethyl)pyrimidin-2-yl]amino}-3-methoxybenzyl)phosphonate], the pIC50 against FAK [1] and at FAK [2] was > 6.00 in each case.

In the case of `COCCOP(=O)(Cc1ccc(Nc2ncc(C(F)(F)F)c(Nc3cccc4c3C(=O)N(C)C4)n2)c(OC)c1)OCCOC` [Example 219, Bis(2-methoxyethyl) [3-methoxy-4-({4-[(2-methyl-3-oxo-2,3-dihydro-1H-isoindol-4-yl)amino]-5-(trifluoromethyl)pyrimidin-2-yl}amino)benzyl]phosphonate], the negative-log IC50 (pIC50) at FAK [1] and on FAK [2] was > 6.00 in each case.

With `CNC(=O)c1ccccc1Nc1nc(Nc2ccc(CP(=O)(OCCOC)OCCOC)cc2OC)ncc1C(F)(F)F` [Example 221, Bis(2-methoxyethyl) (3-methoxy-4-{[4-{[2-(methylcarbamoyl)phenyl]amino}-5-(trifluoromethyl)pyrimidin-2-yl]amino}benzyl)phosphonate], the negative-log IC50 (pIC50) against FAK [1] and on FAK [2] was > 6.00 each time.

For the molecule `CCOP(=O)(Cc1ccc(Nc2ncc(C(F)(F)F)c(Nc3ccc(N4CCN(C(C)=O)CC4)c4c3C(=O)N(C)C4)n2)c(OC)c1)OCC` [Example 223, Diethyl (4-{[4-{[7-(4-acetylpiperazin-1-yl)-2-methyl-3-oxo-2,3-dihydro-1H-isoindol-4-yl]amino}-5-(trifluoromethyl)pyrimidin-2-yl]amino}-3-methoxybenzyl)phosphonate], the pIC50 against FAK [1] and on FAK [2] was > 6.00 throughout.

With `CCOP(=O)(Cc1ccc(Nc2ncc(C(F)(F)F)c(Nc3ccc(N4CC(O)C4)c4c3C(=O)N(C)C4)n2)c(OC)c1)OCC` [Example 229, Diethyl (4-{[4-{[7-(3-hydroxyazetidin-1-yl)-2-methyl-3-oxo-2,3-dihydro-1H-isoindol-4-yl]amino}-5-(trifluoromethyl)pyrimidin-2-yl]amino}-3-methoxybenzyl)phosphonate], the pIC50 on FAK [1] and at FAK [2] was > 6.00 each time.

Take `CCOP(=O)(Cc1ccc(Nc2ncc(C(F)(F)F)c(Nc3ccc([C@H]4CC[C@H](O)CC4)nc3C(=O)NC)n2)c(OC)c1)OCC` [Example 232, Diethyl (4-{[4-{[6-(trans-4-hydroxycyclohexyl)-2-(methylcarbamoyl)pyridin-3-yl]amino}-5-(trifluoromethyl)pyrimidin-2-yl]amino}-3-methoxybenzyl)phosphonate]: the pIC50 on FAK [1] and at FAK [2] was > 6.00 throughout.

Turning to `CCOP(=O)(Cc1ccc(Nc2ncc(C(F)(F)F)c(Nc3ccc(C4CCC(N(C)C)CC4)c4c3C(=O)N(C)C4)n2)c(OC)c1)OCC` (centres unmarked) [Example 233, Diethyl (4-{[4-({7-[4-(dimethylamino)cyclohexyl]-2-methyl-3-oxo-2,3-dihydro-1H-isoindol-4-yl}amino)-5-(trifluoromethyl)pyrimidin-2-yl]amino}-3-methoxybenzyl)phosphonate], the negative-log IC50 (pIC50) against FAK [1] and on FAK [2] was > 6.00 each time.

As for `CCOP(=O)(Cc1ccc(Nc2ncc(C(F)(F)F)c(Nc3ccc([C@H]4CC[C@H](N5CCN(C(C)=O)CC5)CC4)c4c3C(=O)N(C)C4)n2)c(OC)c1)OCC` [Example 238, diethyl (4-{[4-({7-[trans-4-(4-acetylpiperazin-1-yl)cyclohexyl]-2-methyl-3-oxo-2,3-dihydro-1H-isoindol-4-yl}amino)-5-(trifluoromethyl)pyrimidin-2-yl]amino}-3-methoxybenzyl)phosphonate], the negative logarithm of the IC50 (pIC50) at FAK [1] and at FAK [2] was > 6.00 in each case.

Consider `CCOP(=O)(Cc1ccc(Nc2ncc(C(F)(F)F)c(Nc3ccc(C4CCC(N5CCCC5)CC4)c4c3C(=O)N(C)C4)n2)c(OC)c1)OCC` (centres unmarked) [Example 242], for which the negative logarithm of the IC50 (pIC50) against FAK [1] and on FAK [2] was > 6.00 each time.

As for `CCOP(=O)(Cc1ccc(Nc2ncc(C(F)(F)F)c(Nc3ccc([C@@H]4C[C@@H](O)[C@@H](O)C4)c4c3C(=O)N(C)C4)n2)c(OC)c1)OCC` [Example 243, Diethyl (4-{[4-({7-[-3,4-dihydroxycyclopentyl]-2-methyl-3-oxo-2,3-dihydro-1H-isoindol-4-yl}amino)-5-(trifluoromethyl)pyrimidin-2-yl]amino}-3-methoxybenzyl) phosphonate], the pIC50 at FAK [1] and on FAK [2] was > 6.00 each time.

The pIC50 is −log10 of the IC50, conventionally taken in molar units.
